This is an account of results in EPA's ToxValDB 9.5 (doi:10.2903/j.efsa.2011.1924).

Each structure is given as a SMILES string.

For series [1] the following is noted: subchronic.
Setting [2] is: subchronic, duration: 90 days, oral, diet.

The NOAEL is the highest dose or exposure tested at which no adverse effect was seen. Take `COc1cnc(C)s1` [Thiazole, 5-methoxy-2-methyl-]: the NOAEL in series [1] (duration: 90 days) came to 8.6 mg/kg-day.

Turning to `c1csc(SSc2cccs2)c1` [2-Thienyl disulfide], in the series with Rattus norvegicus (setting [2]), the NOAEL was found to be 0.29 mg/kg-day.

With `COCCO` [Methoxyethanol], the no-observed-adverse-effect level (NOAEL) in the series on Rattus norvegicus (chronic) was 6 mg/kg-day.

Regarding `COCCOC(C)OCc1ccccc1` (stereo unspecified) [{[1-(2-Methoxyethoxy)ethoxy]methyl}benzene], the no observed adverse effect level (NOAEL) in the series with Rattus norvegicus (chronic) was determined as 6 mg/kg-day.

In series [1], `CCCc1ccn(-c2ccccc2)n1` [1H-Pyrazole, 1-phenyl-3(or 5)-propyl-] returned a no-observed-adverse-effect level (NOAEL) of 25 mg/kg-day.

In the series on Rattus norvegicus (subchronic, duration: 90 days), `Cc1ncc2c(n1)CSC2` [5,7-Dihydro-2-methylthieno[3,4-d]pyrimidine] returned an NOAEL of 6.6 mg/kg-day.

`CC(=O)c1ccnc(C)n1` [Ethanone, 1-(2-methyl-4-pyrimidinyl)-] came in with a no-observed-adverse-effect level (NOAEL) in the series with Rattus norvegicus (subchronic, duration: 90 days, Sprague-Dawley) of 1 mg/kg-day.

`CC(=O)c1nccs1` [2-Acetylthiazole] came in with an NOAEL in the series on Rattus norvegicus (setting [2]) of 50 mg/kg-day.

`Cc1ccc2c(c1)OC(=O)C2C` (stereo unspecified) [3,6-Dimethyl-1-benzofuran-2(3H)-one] yielded an NOAEL in the series with Rattus norvegicus (subchronic, duration: 90 days, oral) of 5.42 mg/kg-day.

In the series on Rattus norvegicus (setting [2]), `CCC(=O)c1nccs1` [2-Propionylthiazole] yielded an NOAEL of 50 mg/kg-day.

As to `C[S+](C)CC[C@H](N)C(=O)O.[Cl-]` [L-Methylmethionine sulfonium chloride], the NOAEL with Rattus norvegicus (chronic, duration: 14 weeks, oral, diet, M/F, Wistar, no effects) is 250 mg/kg-day.
